# Experimental data: PMC3506555, “[^11C]phenytoin revisited: synthesis by [^11C]CO carbonylation and first evaluation as a P-gp tracer in rats” (EJNMMI Research, 2012)
# “Also recorded” adds a separate entry of the source. Where two headings read alike, the source gives them in different places.
# Assays:
# P-gp [1] = assay: PET brain time-activity curves (SUV), baseline and after tariquidar P-gp block; assay type: in vivo, Sprague–Dawley rats
# Text: (§1) Following cannulation of the femoral vein, animals were positioned in pairs in a double LSO/LYSO layer high-resolution research tomograph (CTI/Siemens, Knoxville, TN, USA). First, for attenuation and scatter correction purposes, a transmission scan was acquired using a 740-MBq two-dimensional fan-collimated ^137Cs (662 keV) moving point source. Next, a dynamic emission scan was acquired immediately following administration of 17.1 ± 2.1 MBq (mean ± SD) ^11C]phenytoin to each rat. Two animals had one single ^11C]phenytoin scan; two animals had two consecutive scans, and two had three consecutive scans. Finally, all animals underwent an ^18F]FDG scan before being euthanized. Tariquidar, 15 mg·kg^−1, was used to completely block P-gp, while probenecid, 150 mg·kg^−1, was used to inhibit multi-resistant protein (MRP) efflux proteins. Tariquidar and probenecid were administered i.v. 20 min prior to the scan start as a 10-min infusion. All animals, except one, were scanned without any treatment prior to the first ^11C]phenytoin scan. Of the animals that had two scans, one underwent two post-tariquidar scans (animal 4, Table 1). […] Animals that underwent three consecutive scans had one baseline, one post probenecid and one post-tariquidar scan. During each scan, emission data were acquired for 60 min in list mode and rebinned into the following frame sequence: 7 × 10, 1 × 20, 3 × 30, 2 × 60, 2 × 150, 2 × 300 and 4 × 600 s. Following corrections for decay, dead time, attenuation, random and scatter, scans were reconstructed using a 3D ordinary Poisson ordered subsets expectation maximization algorithm. […] PET image data were analyzed using the freely available software package Amide 0.9 [31]. A magnetic resonance (MR)-based rat brain atlas was used to define five regions of interest (ROIs): the hippocampus, occipital cortex, parietal cortex, caudate putamen and cerebellum. The MR atlas including all ROIs was aligned visually with the summed ^18F]FDG image for each rat. ROIs were then projected onto all frames of all ^11C]phenytoin scans, resulting in ^11C]phenytoin time-activity curves for each scan and rat.
# (§2) During each [^11C]phenytoin scan, arterial blood samples of 0.1 mL were taken at 20 and 40 s and at 1, 2, 5, 15, 30 and 60 min after [^11C]phenytoin injection. For animals that underwent three scans, the amount of blood withdrawn was reduced by replacing the two samples at 15 and 30 min with a single 20-min sample. Plasma was obtained by centrifugation at 4,000 rpm for 5 min at 4°C, and activity in both plasma and whole blood was measured in an automated 1282 Compugamma CS Universal Gamma Counter (LKB Wallac, Turku, Finland), cross-calibrated against the PET scanner. Standardized uptake values (SUVs) as a function of time were derived by normalizing measured radioactivity concentrations against injected dose and body weight.
# P-gp [2] = assay: PET Logan graphical analysis of brain VT, baseline and after tariquidar P-gp block; assay type: in vivo, Sprague–Dawley rats; conditions: for Kp: Sprague-Dawley; for Kp / Increase in cerebral distribution volume (VT) after tariquidar compared with baseline: rat; for P-gp substrate character: conclusion from tariquidar predosing studies in rats; for Increase in cerebral distribution volume (VT) after tariquidar compared with baseline: tariquidar 15 mg·kg^−1 predosing
# Text: as §1, §2
# To obtain a model independent estimate of the brain-to-plasma partition coefficient, often referred to as volume of distribution, Logan graphical analysis was used. Before Logan analysis, both brain and plasma concentrations were corrected for labeled metabolites. As metabolite fractions were not measured at each plasma or mid-frame time point, linear regression was used to estimate the fraction of intact ^11C]phenytoin at each time point.
# [3] = Arterial plasma radioactivity concentration during PET scans; assay type: in vivo, Sprague–Dawley rats
# Method: For animals that underwent three scans, the amount of blood withdrawn was reduced by replacing the two samples at 15 and 30 min with a single 20-min sample. […] Standardized uptake values (SUVs) as a function of time were derived by normalizing measured radioactivity concentrations against injected dose and body weight.
# [4] = set-up: method as in PMID 98619; conditions: dosage of 14 mg/kg, rhesus monkeys; cited from earlier work
structure (smiles),measurement,setting,value
O=C1N[11C](=O)NC1(c1ccccc1)c1ccccc1 [[^11C]phenytoin],Brain SUV at 60 min (corrected for metabolites),P-gp [1]; baseline scans,around 0.2
same,Maximum brain SUV,P-gp [1]; baseline scans,around 0.8
same,Brain SUV at 60 min (corrected for metabolites),P-gp [1]; post-tariquidar scans,~0.3
same,Maximum brain SUV,P-gp [1]; post-tariquidar scans,~0.9
same,Time of maximum brain concentration after bolus injection,P-gp [1]; rats,approximately 5 min
same,Increase in brain SUV at 10 to 60 min after tariquidar,"P-gp [1]; tariquidar 15 mg·kg^−1, rat, on average",about 50%
same,Kp,"P-gp [2]; caudate putamen (relative to plasma), intravenous, baseline, n = 5, metabolite-corrected plasma input and brain data, read-out: VT (Logan), caudate putamen",0.98 ± 0.08
same,Kp,"P-gp [2]; caudate putamen (relative to plasma), iv, with tariquidar 15 mg/kg i.v., after tariquidar 15 mg·kg^−1 i.v., n = 5, metabolite-corrected, read-out: VT (Logan), caudate putamen",1.48 ± 0.12
same,Kp,"P-gp [2]; cerebellum (relative to plasma), intravenous, baseline, n = 5, metabolite-corrected plasma input and brain data, read-out: VT (Logan), cerebellum",1.02 ± 0.08
same,Kp,"P-gp [2]; cerebellum (relative to plasma), iv, with tariquidar 15 mg/kg i.v., after tariquidar 15 mg·kg^−1 i.v., n = 5, metabolite-corrected, read-out: VT (Logan), cerebellum",1.48 ± 0.09
same,Kp,"P-gp [2]; hippocampus (relative to plasma), intravenous, baseline, n = 5, metabolite-corrected plasma input and brain data, read-out: VT (Logan), hippocampus",0.96 ± 0.09
same,Kp,"P-gp [2]; hippocampus (relative to plasma), iv, with tariquidar 15 mg/kg i.v., after tariquidar 15 mg·kg^−1 i.v., n = 5, metabolite-corrected, read-out: VT (Logan), hippocampus",1.43 ± 0.07
same,Kp,"P-gp [2]; occipital cortex (relative to plasma), intravenous, baseline, n = 5, metabolite-corrected plasma input and brain data, read-out: VT (Logan), occipital cortex",0.91 ± 0.06
same,Kp,"P-gp [2]; occipital cortex (relative to plasma), iv, with tariquidar 15 mg/kg i.v., after tariquidar 15 mg·kg^−1 i.v., n = 5, metabolite-corrected, read-out: VT (Logan), occipital cortex",1.3 ± 0.11
same,Kp,"P-gp [2]; parietal cortex (relative to plasma), intravenous, baseline, n = 5, metabolite-corrected plasma input and brain data, read-out: VT (Logan), parietal cortex",0.91 ± 0.08
same,Kp,"P-gp [2]; parietal cortex (relative to plasma), iv, with tariquidar 15 mg/kg i.v., after tariquidar 15 mg·kg^−1 i.v., n = 5, metabolite-corrected, read-out: VT (Logan), parietal cortex",1.35 ± 0.11
same,P-gp substrate character,P-gp [2],rather weak P-gp substrate; also recorded: moderate P-gp substrate
same,P-gp substrate character,P-gp [2]; listed as 11C]phenytoin,rather moderate affinity for P-gp
same,Increase in cerebral distribution volume (VT) after tariquidar compared with baseline,P-gp [2],45%
same,Increase in cerebral distribution volume (VT) after tariquidar compared with baseline,P-gp [2]; listed as 11C]phenytoin,about 45%
same,Initial plasma concentrations after tariquidar treatment versus baseline,[3]; initial part of scan,somewhat lower than at baseline
same,Plasma concentrations after tariquidar treatment versus baseline,[3]; towards the end of the scans,similar
same,Brain uptake,[4],high brain uptake
